Experiments:
[1] = test system: Diamond Back Moth (Plutella xylostella); experiment: Diamond back moth leaf-dip test; format: in vivo; conditions: cabbage leaves dipped, 3rd instar larvae, 72 hours after treatment, read-out: mortality in comparison with untreated controls
Experimental: B.1 Diamond Back Moth (Plutella xylostella)
The active compound was dissolved at the desired concentration in a mixture of 1:1 (vol:vol) distilled water:aceteone. Surfactant (Kinetic HV) was added at a rate of 0.01% (vol/vol). The test solution was prepared at the day of use.
Leaves of cabbage were dipped in test solution and air-dried. Treated leaves were placed in petri dishes lined with moist filter paper and inoculated with ten 3rd instar larvae. Mortality was recorded 72 hours after treatment. Feeding damages were also recorded using a scale of 0-100%.

[2] = test system: Green Peach Aphid (Myzus persicae); experiment: Green peach aphid systemic test on artificial diet in microtiter plates; format: in vivo; conditions: 72 h, adult aphids on treated artificial diet, 3 days, read-out: mortality in comparison with untreated controls
Source text: B.2 Green Peach Aphid (Myzus persicae)
For evaluating control of green peach aphid (Myzus persicae) through systemic means the test unit consisted of 96-well-microtiter plates containing liquid artificial diet under an artificial membrane.
The compounds were formulated using a solution containing 75% v/v water and 25% v/v DMSO. Different concentrations of formulated compounds were pipetted into the aphid diet, using a custom built pipetter, at two replications.
After application, 5-8 adult aphids were placed on the artificial membrane inside the microtiter plate wells. The aphids were then allowed to suck on the treated aphid diet and incubated at about 23±1° C. and about 50±5% relative humidity for 3 days. Aphid mortality and fecundity was then visually assessed.

[3] = test system: Tobacco Budworm (Heliothis virescens); experiment: Tobacco budworm microtiter plate diet test; format: in vivo; conditions: 120 h, sprayed onto insect diet with eggs, egg and larval mortality after 5 days, read-out: mortality in comparison with untreated controls
Experimental: B.5 Tobacco Budworm (Heliothis virescens)
For evaluating control of tobacco budworm (Heliothis virescens) the test unit consisted of 96-well-microtiter plates containing an insect diet and 15-25 H. virescens eggs. The compounds were formulated using a solution containing 75% v/v water and 25% v/v DMSO. Different concentrations of formulated compounds were sprayed onto the insect diet at 10 μl, using a custom built micro atomizer, at two replications.
After application, microtiter plates were incubated at about 28±1° C. and about 80±5% relative humidity for 5 days. Egg and larval mortality was then visually assessed.

[4] = test system: Boll Weevil (Anthonomus grandis); experiment: Boll weevil microtiter plate diet test; format: in vivo; conditions: 120 h, sprayed onto insect diet with eggs, egg and larval mortality after 5 days, read-out: mortality in comparison with untreated controls
Experimental: B.6 Boll Weevil (Anthonomus grandis)
For evaluating control of boll weevil (Anthonomus grandis) the test unit consisted of 96-well-microtiter plates containing an insect diet and 5-10 A. grandis eggs.
The compounds were formulated using a solution containing 75% v/v water and 25% v/v DMSO. Different concentrations of formulated compounds were sprayed onto the insect diet at 5 μl, using a custom built micro atomizer, at two replications.
After application, microtiter plates were incubated at about 25±1° C. and about 75±5% relative humidity for 5 days. Egg and larval mortality was then visually assessed.

[5] = test system: Mediterranean Fruitfly (Ceratitis capitata); experiment: Mediterranean fruitfly microtiter plate diet test; conditions: 120 h, read-out: mortality in comparison with untreated controls
[6] = test system: Vetch Aphid (Megoura viciae); experiment: Vetch aphid broad bean leaf disk test; format: in vivo; conditions: foliar, 120 h, sprayed onto broad bean leaf disks, adult aphids, 5 days, read-out: mortality in comparison with untreated controls
Experimental: B.4 Vetch Aphid (Megoura viciae)
For evaluating control of vetch aphid (Megoura viciae) through contact or systemic means the test unit consisted of 24-well-microtiter plates containing broad bean leaf disks.
The compounds were formulated using a solution containing 75% v/v water and 25% v/v DMSO. Different concentrations of formulated compounds were sprayed onto the leaf disks at 2.5 μl, using a custom built micro atomizer, at two replications.
After application, the leaf disks were air-dried and 5-8 adult aphids placed on the leaf disks inside the microtiter plate wells. The aphids were then allowed to suck on the treated leaf disks and incubated at about 23±1° C. and about 50±5% relative humidity for 5 days. Aphid mortality and fecundity was then visually assessed.

[7] = test system: Orchid Thrips (Dichromothrips Corbetti); experiment: Orchid thrips floral-immersion test; format: in vivo; conditions: orchid petals dipped, adult thrips, 72 hours after treatment, read-out: mortality in comparison with untreated controls
Experimental: B.7 Orchid Thrips (Dichromothrips Corbetti)
Dichromothrips corbetti adults used for bioassay were obtained from a colony maintained continuously under laboratory conditions. For testing purposes, the test compound is diluted in a 1:1 mixture of acetone:water (vol:vol), plus Kinetic HV at a rate of 0.01% v/v.
Thrips potency of each compound was evaluated by using a floral-immersion technique. All petals of individual, intact orchid flowers were dipped into treatment solution and allowed to dry in Petri dishes. Treated petals were placed into individual resealable plastic along with about 20 adult thrips. All test arenas were held under continuous light and a temperature of about 28° C. for duration of the assay. After 3 days, the numbers of live thrips were counted on each petal. The percent mortality was recorded 72 hours after treatment.

O=C(NCC(F)(F)F)N/N=C/c1ccc(C2=NSC(c3cc(Cl)c(Cl)c(Cl)c3)(C(F)(F)F)C2)c2ccccc12 (stereo not drawn) [Compound 1-1, 1-[(E)-[4-[5-(3,4,5-trichlorophenyl)-5-(trifluoromethyl)-4H-isothiazol-3-yl]-1-naphthyl]methyleneamino]-3-(2,2,2-trifluoroethyl)urea]
≥ 75%: mortality at 500 ppm [1] | mortality at 2500 ppm [2] | mortality at 2500 ppm [3] | mortality at 2500 ppm [4] | mortality at 2500 ppm [5]

O=C(NCC1CC(F)(F)C1)c1ccc(C2=NSC(c3cc(Cl)c(Cl)c(Cl)c3)(C(F)(F)F)C2)c2ccccc12 (stereo not drawn) [Compound 2-1, N-[(3,3-difluorocyclobutyl)methyl]-4-[5-(3,4,5-trichlorophenyl)-5-(trifluoromethyl)-4H-isothiazol-3-yl]naphthalene-1-carboxamide]
≥ 75%: mortality at 500 ppm [1] | mortality at 2500 ppm [2] | mortality at 2500 ppm [6] | mortality at 2500 ppm [3] | mortality at 2500 ppm [4] | mortality at 500 ppm [7] | mortality at 2500 ppm [5]

— patent US10327446B2, “Naphthyl- or isoquinolinyl-substituted isothiazoline compounds” (BOEHRINGER INGELHEIM ANIMAL HEALTH USA INC., priority 2013, dated 2019)
